Measured values taken from ChEMBL document CHEMBL1159247, “Isolation of Novel Beauvericin Analogues from the Fungus Beauveria bassiana” (1995).
≈ marks a conversion by molar mass, not a printed value.

System: Aedes aegypti
Assay: Insecticidal in Aedes aegypti fourth instar mosquito larvae after 24 hrs
Type: functional

Structure (SMILES) | LC50
CC[C@H](C)[C@H]1OC(=O)[C@H](Cc2ccccc2)N(C)C(=O)[C@@H](C(C)C)OC(=O)[C@H](Cc2ccccc2)N(C)C(=O)[C@@H](C(C)C)OC(=O)[C@H](Cc2ccccc2)N(C)C1=O [BEAUVERICIN A] | 31 µg/mL (≈ 38.8 µM)
CC(C)[C@@H]1OC(=O)[C@@H](Cc2ccccc2)N(C)C(=O)[C@H](C(C)C)OC(=O)[C@@H](Cc2ccccc2)N(C)C(=O)[C@H](C(C)C)OC(=O)[C@@H](Cc2ccccc2)N(C)C1=O [BEAUVERICIN] | 26 µg/mL (≈ 33.2 µM)
